Results: US20120142705A1, “ISATIN AND OXINDOLE COMPOUNDS” (priority 2010, published 2012)

The compounds below were run against T1, Recombinant human liver GK1 (GST-GK) (Homo sapiens, UniProt P35557) (assay: In vitro glucokinase activity, G6PDH-coupled spectrophotometric assay). Conditions: 5 mM D-glucose, 30° C., pH 7.1.
T1 construct: made in house; host or cells: E. coli
T1 sequence (P35557 1-466 isoform P35557-2): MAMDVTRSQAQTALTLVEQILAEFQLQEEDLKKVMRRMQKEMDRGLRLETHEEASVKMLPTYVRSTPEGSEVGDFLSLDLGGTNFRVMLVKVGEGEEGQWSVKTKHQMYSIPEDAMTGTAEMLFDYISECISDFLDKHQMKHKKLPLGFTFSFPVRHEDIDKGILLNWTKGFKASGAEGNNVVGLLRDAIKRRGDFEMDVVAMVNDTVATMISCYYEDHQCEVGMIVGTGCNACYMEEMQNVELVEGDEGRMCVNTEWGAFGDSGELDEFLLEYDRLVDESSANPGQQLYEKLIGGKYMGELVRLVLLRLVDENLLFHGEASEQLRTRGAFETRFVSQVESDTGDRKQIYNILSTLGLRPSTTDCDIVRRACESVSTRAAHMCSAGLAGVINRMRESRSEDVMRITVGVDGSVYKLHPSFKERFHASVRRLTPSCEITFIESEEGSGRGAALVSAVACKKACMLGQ
Assay type: biochemical
Summary of the method: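 GST-fused human liver GK1 from E. coli, run at 30° C. in pH 7.1 HEPES with 5 mM glucose, 1 mM ATP and 10% DMSO, coupled via G6PDH to NADH. OD340 rate measured after enzyme start; SC1.5 is the activator concentration raising activity 50% over DMSO control.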

| SMILES | SC1.5 (concentration of activator that produced a 50% increase in the activity of GK) |
| --- | --- |
| O=C(Nc1ccccn1)C(CC1CCCC1)N1C(=O)Cc2ccc(Cl)cc21 (centres unmarked) [Example 122, 2-(6-Chloro-2-oxo-2,3-dihydro-indol-1-yl)-3-cyclopentyl-N-pyridin-2-yl-propionamide] | 0.1 µM |
| O=C(Nc1nccs1)C(CC1CCCC1)N1C(=O)Cc2ccc(Cl)cc21 (centres unmarked) [Example 123, 2-(6-Chloro-2-oxo-2,3-dihydro-indol-1-yl)-3-cyclopentyl-N-thiazol-2-yl-propionamide] | 0.27 µM |
| Cn1ccc(NC(=O)C(CC2CCCC2)N2C(=O)Cc3ccc(Cl)cc32)n1 (centres unmarked) [Example 124, 2-(6-Chloro-2-oxo-2,3-dihydro-indol-1-yl)-3-cyclopentyl-N-(1-methyl-1H-pyrazol-3-yl)-propionamide] | 1.1 µM |
| O=C(Nc1nccs1)C(CC1CCCC1)N1C(=O)Cc2ccc(F)cc21 (centres unmarked) [Example 125, 3-Cyclopentyl-2-(6-fluoro-2-oxo-2,3-dihydro-indol-1-yl)-N-thiazol-2-yl-propionamide] | 0.45 µM |
| Cn1ccc(NC(=O)C(CC2CCCC2)N2C(=O)Cc3ccc(F)cc32)n1 (centres unmarked) [Example 126, 3-Cyclopentyl-2-(6-fluoro-2-oxo-2,3-dihydro-indol-1-yl)-N-(1-methyl-1H-pyrazol-3-yl)-propionamide] | 1.86 µM |
| O=C(Nc1ccccn1)C(CC1CCCC1)N1C(=O)Cc2ccc(F)cc21 (centres unmarked) [Example 127, 3-Cyclopentyl-2-(6-fluoro-2-oxo-2,3-dihydro-indol-1-yl)-N-pyridin-2-yl-propionamide] | 0.18 µM |
| O=C(Nc1cnccn1)C(CC1CCCC1)N1C(=O)Cc2ccc(F)cc21 (centres unmarked) [Example 128, 3-Cyclopentyl-2-(6-fluoro-2-oxo-2,3-dihydro-indol-1-yl)-N-pyrazin-2-yl-propionamide] | 0.81 µM |
| Cc1ccc2c(c1)N(C(CC1CCCC1)C(=O)Nc1nccs1)C(=O)C2 (centres unmarked) [Example 129, 3-Cyclopentyl-2-(6-methyl-2-oxo-2,3-dihydro-indol-1-yl)-N-thiazol-2-yl-propionamide] | 0.53 µM |
| Cc1ccc2c(c1)N(C(CC1CCCC1)C(=O)Nc1cnccn1)C(=O)C2 (centres unmarked) [Example 130, 3-Cyclopentyl-2-(6-methyl-2-oxo-2,3-dihydro-indol-1-yl)-N-pyrazin-2-yl-propionamide] | 0.61 µM |
| Cc1ccc2c(c1)N(C(CC1CCCC1)C(=O)Nc1ccn(C)n1)C(=O)C2 (centres unmarked) [Example 131, 3-Cyclopentyl-2-(6-methyl-2-oxo-2,3-dihydro-indol-1-yl)-N-(1-methyl-1H-pyrazol-3-yl)-propionamide] | 2.28 µM |
| Cc1ccc2c(c1)N(C(CC1CCCC1)C(=O)Nc1ccccn1)C(=O)C2 (centres unmarked) [Example 132, 3-Cyclopentyl-2-(6-methyl-2-oxo-2,3-dihydro-indol-1-yl)-N-pyridin-2-yl-propionamide] | 0.23 µM |
| O=C(Nc1cnccn1)C(CC1CCCC1)N1C(=O)Cc2ccc(Br)cc21 (centres unmarked) [Example 133, 2-(6-Bromo-2-oxo-2,3-dihydro-indol-1-yl)-3-cyclopentyl-N-pyrazin-2-yl-propionamide] | 0.34 µM |
| O=C(Nc1nccs1)C(CC1CCCC1)N1C(=O)Cc2ccc(Br)cc21 (centres unmarked) [Example 134, 2-(6-Bromo-2-oxo-2,3-dihydro-indol-1-yl)-3-cyclopentyl-N-thiazol-2-yl-propionamide] | 0.19 µM |
| O=C(Nc1ccccn1)C(CC1CCCC1)N1C(=O)Cc2ccc(Br)cc21 (centres unmarked) [Example 135, 2-(6-Bromo-2-oxo-2,3-dihydro-indol-1-yl)-3-cyclopentyl-N-pyridin-2-yl-propionamide] | 0.12 µM |
| Cn1ccc(NC(=O)C(CC2CCCC2)N2C(=O)Cc3ccc(Br)cc32)n1 (centres unmarked) [Example 136, 2-(6-Bromo-2-oxo-2,3-dihydro-indol-1-yl)-3-cyclopentyl-N-(1-methyl-1H-pyrazol-3-yl)-propionamide] | 0.88 µM |
| N#Cc1ccc2c(c1)N(C(CC1CCCC1)C(=O)Nc1ccccn1)C(=O)C2 (centres unmarked) [Example 137, 2-(6-Cyano-2-oxo-2,3-dihydro-indol-1-yl)-3-cyclopentyl-N-pyridin-2-yl-propionamide] | 1.91 µM |
| CS(=O)(=O)c1ccc2c(c1)N(C(CC1CCCC1)C(=O)Nc1nccs1)C(=O)C2 (centres unmarked) [Example 138, 3-Cyclopentyl-2-(6-methanesulfonyl-2-oxo-2,3-dihydro-indol-1-yl)-N-thiazol-2-yl-propionamide] | 2.94 µM |
